Source: the NIST ThermoML archive (doi:10.1021/je7003148)

Experiment: cn = amount concentration of the nth substance listed, in mol/dm3
Conditions: 298 K; for surface tension liquid-gas: Ring tensiometer; for kinematic viscosity / speed of sound / mass density: 101.33 kPa, Liquid; for kinematic viscosity: Capillary tube (Ostwald / Ubbelohde) method; for speed of sound: Sing-around technique in a fixed-path interferometer

CCCCCCCCCCCCCCCCCC[N+](C)(C)C.[Br-] [N,N,N-trimethyl-1-octadecanaminium bromide] + O
Conditions | kinematic viscosity [m2/s] | mass density [kg/m3] | speed of sound [m/s] | surface tension liquid-gas [mN/m]
c1 = 0.001 | 8.957e-07 | 997.053 | 1497.2 | 62.3
c1 = 0.002 | 8.958e-07 | 997.053 | 1497.7 | 54.2
c1 = 0.003 | 8.958e-07 | 997.053 | 1498 | 48.7
c1 = 0.004 | 8.958e-07 | 997.053 | 1498.2 | 45
c1 = 0.005 | 8.959e-07 | 997.053 | 1498 | 42.8
c1 = 0.006 | 8.959e-07 | 997.054 | 1497.8 | 42
c1 = 0.008 | 8.96e-07 | 997.054 | 1497.2 | 41.4
c1 = 0.01 | 8.96e-07 | 997.054 | 1496.7 | 41.3
c1 = 0.013 | 8.961e-07 | 997.054 | 1496 | 41
c1 = 0.016 | 8.962e-07 | 997.054 | 1495.2 | 40.8
c1 = 0.02 | 8.963e-07 | 997.055 | 1494.2 | 40.4
c1 = 0.025 | 8.965e-07 | 997.055 | 1492.7 | 40.2
c1 = 0.03 | 8.966e-07 | 997.056 | 1491.6 | 39.6
c1 = 0.04 | 8.969e-07 | 997.057 | 1489.2 | 39.3

CCCCCCCCCCCCCC[N+](C)(C)C.[Br-] [tetradecyltrimethylammonium bromide] + O
Conditions | kinematic viscosity [m2/s] | mass density [kg/m3] | speed of sound [m/s] | surface tension liquid-gas [mN/m]
c1 = 0.001 | 8.962e-07 | 997.062 | 1496.9 | 60.4
c1 = 0.002 | 8.968e-07 | 997.064 | 1497.2 | 51.7
c1 = 0.003 | 8.991e-07 | 997.087 | 1497.3 | 44
c1 = 0.005 | 9.015e-07 | 997.106 | 1497.4 | 40.6
c1 = 0.01 | 9.078e-07 | 997.153 | 1497.5 | 38
c1 = 0.015 | 9.144e-07 | 997.204 | 1497.6 | 37.8
c1 = 0.02 | 9.215e-07 | 997.268 | 1497.7 | 37.6
c1 = 0.025 | 9.29e-07 | 997.307 | 1497.8 | 37.4
c1 = 0.03 | 9.368e-07 | 997.349 | 1497.8 | 37.1
c1 = 0.035 | 9.45e-07 | 997.402 | 1497.9 | 37
c1 = 0.04 | 9.537e-07 | 997.458 | 1497.9 | 36.9
c1 = 0.045 | 9.627e-07 | 997.5 | 1498 | 36.8
c1 = 0.05 | 9.722e-07 | 997.545 | 1498.1 | 36.7
c1 = 0.055 | 9.82e-07 | 997.604 | 1498.1 | 36.7

O [water] + CCCCCCCCCCCCCCCCCC[N+](C)(C)C.[Br-]
c2 = 0
Conditions | kinematic viscosity [m2/s] | surface tension liquid-gas [mN/m]
– | 8.957e-07 | 72.5

O [water] + CCCCCCCCCCCCCC[N+](C)(C)C.[Br-]
c2 = 0
Conditions | kinematic viscosity [m2/s] | surface tension liquid-gas [mN/m]
– | 8.957e-07 | 72.5
